Source: EP4745137A1 (Gluetacs Therapeutics (Shanghai) Co., Ltd., priority 2023, dated 2025)
Read-outs that look alike come from different tables or passages of the source.

How the values were obtained:
[1] = target: T1, human Cereblon WT GST-tagged protein (Homo sapiens, UniProt Q96SW2); assay: CRBN-binding affinity by HTRF (CEREBLON BINDING kit)
T1 construct: purchased CISBIO 64BDCRBNPEH
Experimental: The CEREBLON BINDING kits (specification: 10,000 tests; product number: Catalog # 64BDCRBNPEH; CISBIO company) was used to determine the CRBN binding ability of the compounds to be tested through a HTRF method (homogeneous time-resolved fluorescence). The specific methods are as follows: • 1. […] Specifically, diluent #9 (1X) solution was used as the diluent, and multiple concentration gradients were set. […] Then, 2.5 µL of human Cereblon WT GST-tagged protein solution was added to each well. Finally, 5 µL of the thoroughly mixed Thalidomide-Re reagent and GST Eu antibody working solution were added to each of the aforementioned wells. […] The blank control wells were sequentially added with 2.5 µL of diluent #9 (1X) solution, 2.5 µL of binding buffer, and 5 µL of thoroughly mixed Thalidomide-Re reagent and GST Eu antibody working solution. • 4.

[2] = target: T2, IKZF2 (Homo sapiens, UniProt Q96SW2+Q9UKS7); assay: Western-blot assay of substrate protein degradation in hPBMCs, IKZF2; type: cell-based; details: 24 hours of compound treatment, 50 nM and 500 nM tested (concentration behind the class not stated)
T2 construct: endogenous in cells; host or cells: hPBMCs (Milecell Biotechnologies)

[3] = target: T3, IKZF3 (Homo sapiens, UniProt Q96SW2+Q9UKT9); assay: Western-blot assay of substrate protein degradation in hPBMCs, IKZF3; type: cell-based; details: 24 hours of compound treatment, 50 nM and 500 nM tested (concentration behind the class not stated)
T3 construct: endogenous in cells; host or cells: hPBMCs (Milecell Biotechnologies)

[4] = target: T4, WEE1 (Homo sapiens, UniProt P30291+Q96SW2); assay: Western-blot assay of substrate protein degradation in hPBMCs, WEE1; type: cell-based; details: 24 hours of compound treatment, 50 nM and 500 nM tested (concentration behind the class not stated)
T4 construct: endogenous in cells; host or cells: hPBMCs (Milecell Biotechnologies)

[5] = target: T5, GSPT1 (Homo sapiens, UniProt P15170+Q96SW2); assay: Western-blot assay of substrate protein degradation in hPBMCs, GSPT1; type: cell-based; details: 24 hours of compound treatment, 50 nM and 500 nM tested (concentration behind the class not stated)
T5 construct: endogenous in cells; host or cells: hPBMCs (Milecell Biotechnologies)

[6] = target: T6, IKZF1 (Homo sapiens, UniProt Q13422+Q96SW2); assay: Western-blot assay of substrate protein degradation in hPBMCs, IKZF1; type: cell-based; details: 24 hours of compound treatment, 50 nM and 500 nM tested (concentration behind the class not stated)
T6 construct: endogenous in cells; host or cells: hPBMCs (Milecell Biotechnologies)

[7] = target: T7, CK1α (Homo sapiens, UniProt P48729+Q96SW2); assay: Western-blot assay of substrate protein degradation in hPBMCs, CK1α; type: cell-based; details: 24 hours of compound treatment, 50 nM and 500 nM tested (concentration behind the class not stated)
T7 construct: endogenous in cells; host or cells: hPBMCs (Milecell Biotechnologies)

[8] = HTRF inhibitory activity, CEREBLON BINDING kit; read-out: HTRF IC50

T3 sequence (Q9UKT9 whole entry): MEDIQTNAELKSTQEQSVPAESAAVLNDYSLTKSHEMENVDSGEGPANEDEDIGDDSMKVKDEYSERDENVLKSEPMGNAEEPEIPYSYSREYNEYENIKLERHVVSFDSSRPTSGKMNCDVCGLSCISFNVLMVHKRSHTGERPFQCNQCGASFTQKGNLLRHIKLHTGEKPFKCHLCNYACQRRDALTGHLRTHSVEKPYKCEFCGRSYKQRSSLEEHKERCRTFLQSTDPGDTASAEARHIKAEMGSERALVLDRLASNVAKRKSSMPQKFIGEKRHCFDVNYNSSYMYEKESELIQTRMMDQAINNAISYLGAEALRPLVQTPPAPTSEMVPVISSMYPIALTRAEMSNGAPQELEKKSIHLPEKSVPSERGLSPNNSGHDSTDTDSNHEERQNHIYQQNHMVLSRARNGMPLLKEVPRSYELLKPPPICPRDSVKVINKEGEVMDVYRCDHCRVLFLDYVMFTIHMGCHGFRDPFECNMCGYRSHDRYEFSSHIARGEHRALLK
T3 sequence (Q96SW2 whole entry): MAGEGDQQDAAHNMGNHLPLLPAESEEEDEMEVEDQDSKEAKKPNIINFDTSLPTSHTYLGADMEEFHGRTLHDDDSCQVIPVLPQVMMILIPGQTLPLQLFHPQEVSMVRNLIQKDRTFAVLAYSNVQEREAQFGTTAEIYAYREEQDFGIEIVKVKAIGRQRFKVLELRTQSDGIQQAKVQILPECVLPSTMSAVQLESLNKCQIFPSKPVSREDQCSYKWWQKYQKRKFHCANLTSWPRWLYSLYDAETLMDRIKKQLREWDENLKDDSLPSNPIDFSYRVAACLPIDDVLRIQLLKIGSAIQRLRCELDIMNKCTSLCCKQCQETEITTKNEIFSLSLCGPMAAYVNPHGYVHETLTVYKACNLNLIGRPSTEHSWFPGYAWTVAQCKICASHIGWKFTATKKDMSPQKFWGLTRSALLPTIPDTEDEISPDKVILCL
T3 sequence (Q16531 whole entry partner): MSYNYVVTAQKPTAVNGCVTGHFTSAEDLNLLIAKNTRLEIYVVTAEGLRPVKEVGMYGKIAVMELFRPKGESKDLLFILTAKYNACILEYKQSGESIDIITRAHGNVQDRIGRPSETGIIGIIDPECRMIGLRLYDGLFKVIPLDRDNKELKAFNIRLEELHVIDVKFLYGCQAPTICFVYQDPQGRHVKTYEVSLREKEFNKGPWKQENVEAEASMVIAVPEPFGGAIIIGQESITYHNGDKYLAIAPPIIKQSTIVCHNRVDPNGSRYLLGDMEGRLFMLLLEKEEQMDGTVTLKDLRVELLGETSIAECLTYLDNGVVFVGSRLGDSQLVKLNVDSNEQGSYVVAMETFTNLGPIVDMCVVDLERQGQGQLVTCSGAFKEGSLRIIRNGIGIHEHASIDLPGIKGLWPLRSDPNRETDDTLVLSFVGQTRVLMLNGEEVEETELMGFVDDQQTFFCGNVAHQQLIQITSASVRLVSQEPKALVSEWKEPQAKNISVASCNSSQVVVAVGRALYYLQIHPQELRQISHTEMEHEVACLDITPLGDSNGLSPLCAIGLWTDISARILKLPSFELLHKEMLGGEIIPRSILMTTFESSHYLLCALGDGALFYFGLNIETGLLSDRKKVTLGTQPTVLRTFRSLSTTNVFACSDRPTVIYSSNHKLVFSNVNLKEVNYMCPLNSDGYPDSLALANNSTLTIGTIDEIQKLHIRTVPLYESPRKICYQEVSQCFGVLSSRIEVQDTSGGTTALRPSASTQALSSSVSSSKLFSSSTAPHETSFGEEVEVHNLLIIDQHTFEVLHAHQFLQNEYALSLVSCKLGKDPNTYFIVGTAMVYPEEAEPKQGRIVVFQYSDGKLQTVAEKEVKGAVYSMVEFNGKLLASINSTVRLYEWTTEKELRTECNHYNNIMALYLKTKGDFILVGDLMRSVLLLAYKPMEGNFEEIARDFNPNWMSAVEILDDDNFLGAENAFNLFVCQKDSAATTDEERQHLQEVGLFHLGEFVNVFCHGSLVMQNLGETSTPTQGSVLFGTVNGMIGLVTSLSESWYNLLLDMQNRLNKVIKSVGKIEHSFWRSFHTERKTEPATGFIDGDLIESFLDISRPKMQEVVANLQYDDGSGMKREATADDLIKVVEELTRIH
T6 sequence (Q13422 whole entry): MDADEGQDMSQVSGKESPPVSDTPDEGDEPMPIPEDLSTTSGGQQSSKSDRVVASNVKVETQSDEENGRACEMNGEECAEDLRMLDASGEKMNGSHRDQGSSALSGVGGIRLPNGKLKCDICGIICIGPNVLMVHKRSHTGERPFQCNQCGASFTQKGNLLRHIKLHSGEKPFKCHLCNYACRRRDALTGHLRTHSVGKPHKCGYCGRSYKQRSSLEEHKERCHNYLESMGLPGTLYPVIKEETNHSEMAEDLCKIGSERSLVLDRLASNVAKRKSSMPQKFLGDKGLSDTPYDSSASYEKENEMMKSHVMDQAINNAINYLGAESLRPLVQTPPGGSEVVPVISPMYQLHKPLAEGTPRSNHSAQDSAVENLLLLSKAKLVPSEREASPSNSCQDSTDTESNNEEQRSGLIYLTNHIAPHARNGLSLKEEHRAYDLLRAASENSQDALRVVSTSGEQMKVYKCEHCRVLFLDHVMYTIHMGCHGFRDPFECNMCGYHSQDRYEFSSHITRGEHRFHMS
T6 sequence (Q96SW2 whole entry): as the sequence (Q96SW2 whole entry) above
T6 sequence (Q16531 whole entry partner): as the sequence (Q16531 whole entry partner) above
T7 sequence (P48729 whole entry): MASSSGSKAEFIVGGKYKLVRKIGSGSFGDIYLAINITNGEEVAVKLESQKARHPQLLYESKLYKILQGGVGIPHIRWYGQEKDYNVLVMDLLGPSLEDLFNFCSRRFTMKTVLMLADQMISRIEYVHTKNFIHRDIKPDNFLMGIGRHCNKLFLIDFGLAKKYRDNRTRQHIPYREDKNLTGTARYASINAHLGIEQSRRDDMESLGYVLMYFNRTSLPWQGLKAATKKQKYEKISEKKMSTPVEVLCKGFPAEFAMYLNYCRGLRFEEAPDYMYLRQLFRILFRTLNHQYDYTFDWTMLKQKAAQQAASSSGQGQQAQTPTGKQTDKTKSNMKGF
T7 sequence (Q96SW2 whole entry): as the sequence (Q96SW2 whole entry) above
T7 sequence (Q16531 whole entry partner): as the sequence (Q16531 whole entry partner) above
T4 sequence (P30291 whole entry): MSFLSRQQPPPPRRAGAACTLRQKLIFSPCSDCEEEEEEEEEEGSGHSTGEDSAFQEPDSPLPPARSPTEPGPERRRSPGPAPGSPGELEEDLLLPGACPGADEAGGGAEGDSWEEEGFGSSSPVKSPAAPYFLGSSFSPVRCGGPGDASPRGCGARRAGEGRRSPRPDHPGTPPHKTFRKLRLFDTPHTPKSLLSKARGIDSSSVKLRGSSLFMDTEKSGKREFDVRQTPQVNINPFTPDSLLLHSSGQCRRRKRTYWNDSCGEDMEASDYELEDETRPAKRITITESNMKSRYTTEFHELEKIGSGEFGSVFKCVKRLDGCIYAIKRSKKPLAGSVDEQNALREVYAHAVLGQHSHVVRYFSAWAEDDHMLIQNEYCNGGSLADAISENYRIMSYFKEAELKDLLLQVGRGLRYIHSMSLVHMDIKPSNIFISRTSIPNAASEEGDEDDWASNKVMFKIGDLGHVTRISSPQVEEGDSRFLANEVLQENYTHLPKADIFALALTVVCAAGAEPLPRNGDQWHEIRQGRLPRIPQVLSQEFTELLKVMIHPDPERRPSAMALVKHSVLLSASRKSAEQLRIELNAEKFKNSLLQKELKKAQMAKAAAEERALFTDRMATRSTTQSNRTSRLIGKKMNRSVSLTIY
T4 sequence (Q96SW2 whole entry): as the sequence (Q96SW2 whole entry) above
T4 sequence (Q16531 whole entry partner): as the sequence (Q16531 whole entry partner) above
T2 sequence (Q9UKS7 whole entry): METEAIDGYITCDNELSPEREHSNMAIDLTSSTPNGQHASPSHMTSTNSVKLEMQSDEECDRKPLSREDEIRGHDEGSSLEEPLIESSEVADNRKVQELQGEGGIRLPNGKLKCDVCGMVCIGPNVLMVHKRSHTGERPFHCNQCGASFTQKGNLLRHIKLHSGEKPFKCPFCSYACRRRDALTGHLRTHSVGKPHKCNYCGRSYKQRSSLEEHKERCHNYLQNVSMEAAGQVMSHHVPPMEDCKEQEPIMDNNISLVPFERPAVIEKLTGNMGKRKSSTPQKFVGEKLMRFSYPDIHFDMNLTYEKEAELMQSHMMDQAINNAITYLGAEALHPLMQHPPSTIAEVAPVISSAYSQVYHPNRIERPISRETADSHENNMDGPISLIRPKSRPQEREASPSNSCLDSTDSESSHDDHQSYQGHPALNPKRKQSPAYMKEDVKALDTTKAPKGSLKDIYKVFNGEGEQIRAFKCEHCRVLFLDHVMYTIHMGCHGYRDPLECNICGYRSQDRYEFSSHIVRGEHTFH
T2 sequence (Q96SW2 whole entry): as the sequence (Q96SW2 whole entry) above
T2 sequence (Q16531 whole entry partner): as the sequence (Q16531 whole entry partner) above
T1 sequence (Q96SW2 whole entry): as the sequence (Q96SW2 whole entry) above

Row | IC50 [1, 8] [nM] | SMILES | IKZF2 substrate protein remaining % [2] | IKZF3 substrate protein remaining % [3] | Weel substrate protein remaining % [4] | GSPT1 substrate protein remaining % [5] | IKZF 1 substrate protein remaining % [6] | CK1a substrate protein remaining % [7] | other results
1 | < 500 | O=C1CCC(N2Cc3cc(CN4CCN(c5ccnc(Cl)c5)CC4)ccc3C2=O)C(=O)N1 (stereo not shown) [GT-04435, 3-(5-((4-(2-chloropyridin-4-yl)piperazin-1-yl)methyl)-1-oxoisoindolin-2-yl)piperidine-2,6-dione] |  |  |  |  |  |  | 
2 | < 500 | O=C1CCC(N2Cc3cc(CN4CCN(c5c(Cl)cncc5Cl)CC4)ccc3C2=O)C(=O)N1 (stereo not shown) [GT-04436, 3-(5-((4-(3,5-dichloropyridin-4-yl)piperazin-1-yl)methyl)-1-oxoisoindolin-2-yl)piperidine-2,6-dione] |  |  |  |  |  |  | 
3 | 500 to 1000 | O=C1CCC(N2Cc3cc(CN4CCN(c5nc(Cl)nc6c5SCC6)CC4)ccc3C2=O)C(=O)N1 (stereo not shown) [GT-04683, 3-(5-((4-(2-chloro-6,7-dihydrothieno[3,2-d]pyrimidin-4-yl)piperazin-1-yl)methyl)-1-oxoisoindolin-2-yl)piperidine-2,6-dione] |  |  |  |  |  |  | 
4 | < 500 | O=C1CCC(N2Cc3cc(CN4CCN(c5nc6c(c(N7CCNCC7)n5)SCC6)CC4)ccc3C2=O)C(=O)N1 (stereo not shown) [GT-04720, 3-(1-oxo-5-((4-(4-(piperazin-1-yl)-6,7-dihydrothieno[3,2-d]pyrimidin-2-yl)piperazin-1-yl)methyl)isoindolin-2-yl)piperidine-2,6-dione] |  |  |  |  |  |  | 
5 | 500 to 1000 | O=C1CCC(N2Cc3cc(CN4CCC(c5noc6cc(F)ccc56)CC4)cc(F)c3C2=O)C(=O)N1 (stereo not shown) [GT-04767, 3-(7-fluoro-5-((4-(6-fluorobenzo[d]isoxazol-3-yl)piperidin-1-yl)methyl)-1-oxoisoindolin-2-yl)piperidine-2,6-dione] |  |  |  |  |  |  | 
6 | 1500 to 1900 | O=C1CCC(N2Cc3ccc(CN4CCC(c5noc6cc(F)ccc56)CC4)cc3C2=O)C(=O)N1 (stereo not shown) [GT-04768, 3-(6-((4-(6-fluorobenzo[d]isoxazol-3-yl)piperidin-1-yl)methyl)-1-oxoisoindolin-2-yl)piperidine-2,6-dione] |  |  |  |  |  |  | 
7 | 500 to 1000 | O=C1CCC(N2Cc3cc(CN4CCN(c5c(Cl)ccnc5Cl)CC4)ccc3C2=O)C(=O)N1 (stereo not shown) [GT-04896, 3-(5-((4-(2,4-dichloropyridin-3-yl)piperazin-1-yl)methyl)-1-oxoisoindolin-2-yl)piperidine-2,6-dione] |  |  |  |  |  |  | 
8 | < 500 | Cc1nc(N2CCN(Cc3ccc4c(c3)CN(C3CCC(=O)NC3=O)C4=O)CC2)c2c(-c3ccccc3)csc2n1 (stereo not shown) [GT-05100, 3-(5-((4-(2-methyl-5-phenylthieno[2,3-d]pyrimidin-4-yl)piperazin-1-yl)methyl)-1-oxoisoindolin-2-yl)piperidine-2,6-dione] |  |  |  |  |  |  | 
9 | 1000 to 1500 | O=C1CCC(N2C(=O)c3ccc(CN4CCN(c5ncnc6scc(-c7ccccc7)c56)CC4)cc3C2=O)C(=O)N1 (stereo not shown) [GT-06345, 2-(2,6-dioxopiperidin-3-yl)-5-((4-(5-phenylthieno[2,3-d]pyrimidin-4-yl)piperazin-1-yl)methyl)isoindoline-1,3-dione] |  |  |  |  |  |  | 
10 | 1000 to 1500 | Cc1nc(N2CCN(Cc3ccc4c(c3)C(=O)N(C3CCC(=O)NC3=O)C4=O)CC2)c2c(-c3ccccc3)csc2n1 (stereo not shown) [GT-06346, 2-(2,6-dioxopiperidin-3-yl)-5-((4-(2-methyl-5-phenylthieno[2,3-d]pyrimidin-4-yl)piperazin-1-yl)methyl)isoindoline-1,3-dione] |  |  |  |  |  |  | 
11 | 1000 to 1500 | O=C1CCC(N2C(=O)c3ccc(CN4CCC(c5ncnc6scc(-c7ccccc7)c56)CC4)cc3C2=O)C(=O)N1 (stereo not shown) [GT-06595, 2-(2,6-dioxopiperidin-3-yl)-5-((4-(5-phenylthieno[2,3-d]pyrimidin-4-yl)piperidin-1-yl)methyl)isoindoline-1,3-dione] |  |  |  |  |  |  | 
12 | 1500 to 1900 | O=C1CCC(N2C(=O)c3ccc(CN4CCN(c5ccc(Cl)nn5)CC4)cc3C2=O)C(=O)N1 (stereo not shown) [GT-06605, 5-((4-(6-chloropyridazin-3-yl)piperazin-1-yl)methyl)-2-(2,6-dioxopiperidin-3-yl)isoindoline-1,3-dione] |  |  |  |  |  |  | 
13 |  | O=C1CCC(N2C(=O)c3ccc(CN4CCN(c5nc6c(c(N7CCOCC7)n5)SCC6)CC4)cc3C2=O)C(=O)N1 (stereo not shown) [GT-06713, 2-(2,6-dioxopiperidin-3-yl)-5-((4-(4-morpholino-6,7-dihydrothieno[3,2-d]pyrimidin-2-yl)piperazin-1-yl)methyl)isoindoline-1,3-dione] |  |  |  |  |  |  | IC50 ([1]; read-out: HTRF IC50; HTRF inhibitory activity, CEREBLON BINDING kit): 1500 to 1900 nM
14 |  | O=C1CCC(N2C(=O)c3ccc(CN4CCN(c5nsc6ccccc56)CC4)cc3C2=O)C(=O)N1 (stereo not shown) [GT-06763, 5-((4-(benzo[d]isothiazol-3-yl)piperazin-1-yl)methyl)-2-(2,6-dioxopiperidin-3-yl)isoindoline-1,3-dione] | B (80%< substrate protein remaining %≤ 100%) | B (80%< substrate protein remaining %≤ 100%) | A (0% ≤ substrate protein remaining % ≤ 80%) | A (0% ≤ substrate protein remaining % ≤ 80%) | A (0% ≤ substrate protein remaining % ≤ 80%) | A (0% ≤ substrate protein remaining % ≤ 80%) | 
15 |  | O=C1CCC(N2C(=O)c3ccc(CN4CCN(Cc5ccc(C67CC8CC(CC(C8)C6)C7)cc5)CC4)cc3C2=O)C(=O)N1 (stereo not shown) [GT-06810, 5-((4-(4-((3r,5r,7r)-adamantan-1-yl)benzyl)piperazin-1-yl)methyl)-2-(2,6-dioxopiperidin-3-yl)isoindoline-1,3-dione] | A (0% ≤ substrate protein remaining % ≤ 80%) | A (0% ≤ substrate protein remaining % ≤ 80%) | B (80%< substrate protein remaining %≤ 100%) | A (0% ≤ substrate protein remaining % ≤ 80%) | A (0% ≤ substrate protein remaining % ≤ 80%) | A (0% ≤ substrate protein remaining % ≤ 80%) | 
16 |  | O=C1CCC(N2C(=O)c3ccc(CN4CCCC(C5CCNCC5)C4)cc3C2=O)C(=O)N1 (stereo not shown) [GT-06881, 5-([3,4'-bipiperidin]-1-ylmethyl)-2-(2,6-dioxopiperidin-3-yl)isoindoline-1,3-dione] | B (80%< substrate protein remaining %≤ 100%) | B (80%< substrate protein remaining %≤ 100%) | B (80%< substrate protein remaining %≤ 100%) | A (0% ≤ substrate protein remaining % ≤ 80%) | B (80%< substrate protein remaining %≤ 100%) | A (0% ≤ substrate protein remaining % ≤ 80%) | 
17 |  | O=C1CCC(N2C(=O)c3ccc(CNC45CC6CC(CC(C6)C4)C5)cc3C2=O)C(=O)N1 (stereo not shown) [GT-06912, 5-((((3s,5s,7s)-adamantan-1-yl)amino)methyl)-2-(2,6-dioxopiperidin-3-yl)isoindoline-1,3-dione] | A (0% ≤ substrate protein remaining % ≤ 80%) | B (80%< substrate protein remaining %≤ 100%) | A (0% ≤ substrate protein remaining % ≤ 80%) | A (0% ≤ substrate protein remaining % ≤ 80%) | A (0% ≤ substrate protein remaining % ≤ 80%) | A (0% ≤ substrate protein remaining % ≤ 80%) | 
18 |  | O=C1CCC(N2C(=O)c3ccc(CN4CCN(c5cnccn5)CC4)cc3C2=O)C(=O)N1 (stereo not shown) [GT-07060, 2-(2,6-dioxopiperidin-3-yl)-5-((4-(pyrazin-2-yl)piperazin-1-yl)methyl)isoindoline-1,3-dione] | A (0% ≤ substrate protein remaining % ≤ 80%) | A (0% ≤ substrate protein remaining % ≤ 80%) | A (0% ≤ substrate protein remaining % ≤ 80%) | A (0% ≤ substrate protein remaining % ≤ 80%) | A (0% ≤ substrate protein remaining % ≤ 80%) | A (0% ≤ substrate protein remaining % ≤ 80%) | 
19 |  | O=C1CCC(N2C(=O)c3ccc(CN4CCN(c5cccnn5)CC4)cc3C2=O)C(=O)N1 (stereo not shown) [GT-07844, 2-(2,6-dioxopiperidin-3-yl)-5-((4-(pyridazin-3-yl)piperazin-1-yl)methyl)isoindoline-1,3-dione] | B (80%< substrate protein remaining %≤ 100%) | A (0% ≤ substrate protein remaining % ≤ 80%) | B (80%< substrate protein remaining %≤ 100%) | B (80%< substrate protein remaining %≤ 100%) | A (0% ≤ substrate protein remaining % ≤ 80%) | B (80%< substrate protein remaining %≤ 100%) | 
